# How the values were obtained:
# prostate cancer cells [1] = test: cell cycle effect in prostate cancer cells; type: cell-based; settings: stated as apparent mechanism
# Source text: (§1) The increasing apoptosis and necrosis in hormone-independent and hormone dependent prostate cancer cells after exposure to tetrandrine occurs in a dose- and time-dependent manner.
# calcium channel = settings: cited from earlier work
# Caspase-7 = Caspase-7 activation; type: cell-based; settings: FIG. 6
# Bcl-XL = Bcl-XL down-regulation in prostate cancer cells; type: cell-based; settings: FIG. 9
# Caspase-3 = Caspase-3 activation; type: cell-based; settings: FIG. 6
# [2] = system: PC3 prostate cancer cells; test: clonogenic activity of PC3 prostate cancer cells; type: cell-based; settings: dose dependent, FIG. 5
# LNCaP cells [3] = test: dose response of LNCaP growth and proliferation, optical density of stained live cells; type: cell-based
# cytochrome-C = test: mitochondrial cytochrome C release; type: cell-based; settings: FIG. 8
# LNCaP cells [4] = test: growth and proliferation of LNCaP cells stimulated by dihydrotestosterone (DHT); type: cell-based
# Protocol: Tetrandrine inhibits the growth and proliferation of prostate cancer cells in a dose- and time-dependent manner. For example, the growth and proliferation of LNCaP cells stimulated by dihydrotestosterone (DHT) and fetal calf serum (FCS) can be stopped or inhibited and, at higher concentrations or at longer exposure times, the cells are killed. Preferably, the concentration of tetrandrine used is between about 10 μM and about 60 μM. […] The cells take on an atrophied appearance after contact with tetrandrine.
# LNCaP cells [5] = test: growth and proliferation of LNCaP cells stimulated by fetal calf serum (FCS); type: cell-based
# [6] = doses of from 100 mg/day to 300 mg/day, prior studies; cited from earlier work
# [7] = system: PC3 prostate cancer cells; test: killing of hormone-independent PC3 prostate cancer cells; type: cell-based; settings: increasing concentrations, 96 hours of exposure; FIG. 4
# [8] = system: LNCaP prostate cancer cells; test: flow cytometry of apoptosis and necrosis in LNCaP cells; type: cell-based; settings: 24 hours or 48 hours exposure
# Source text: as §1
# [9] = system: prostate specific antigen (PSA); test: DHT-stimulated prostate specific antigen (PSA) expression in LNCaP cells; type: cell-based
# Caspase-8 = Caspase-8 activation; type: cell-based; settings: FIG. 6
# prostate cancer cells [10] = test: morphology of cellular organelles of prostate cancer cells; type: cell-based; settings: about 10 μM and 20 μM tetrandrine
# Caspase-9 = Caspase-9 activation; type: cell-based; settings: FIG. 6
# PARP = PARP cleavage; type: cell-based; settings: FIG. 7
structure (smiles),measurement,setting,value
"COc1ccc2cc1Oc1ccc(cc1)CC1c3cc(c(OC)cc3CCN1C)Oc1c(OC)c(OC)cc3c1C(C2)N(C)CC3 (centres unmarked) [tetrandrine, (1B)-6,6′,7,12-tetramethoxy-2,2′-dimethyl-berbaman]",mechanism of decreased proliferation / increased apoptosis (cell cycle),prostate cancer cells [1],cell cycle arrest in G1
same,calcium channel blocker activity,calcium channel,minimal
same,Caspase-7 activation,Caspase-7,concentration-dependent increase
same,Bcl-XL level in prostate cancer cells,Bcl-XL,concentration-dependent down-regulation
same,Caspase-3 activation,Caspase-3,concentration-dependent increase
same,clonogenic activity of PC3 cells,[2],inhibition of the clonogenic activity
same,clonogenic activity of PC3 cells,[2]; listed as Tetrandrine,inhibits the clonogenic activity
same,death of LNCaP cells at longer exposure,"LNCaP cells [3]; 48 hours and 72 hours versus 24 hours, each concentration",death of LNCaP cells is greater
same,"growth of LNCaP cells, stained live cells","LNCaP cells [3]; about 5 μM tetrandrine, 24 hours",growth of LNCaP cells is inhibited
same,"killing of LNCaP cells, stained live cells","LNCaP cells [3]; about 60 μM tetrandrine, 24 hours",almost all LNCAP cells are killed
same,cytoplasmic cytochrome-C,cytochrome-C,concentration-dependent increase
same,mitochondrial cytochrome-C,cytochrome-C,concentration-dependent decrease
same,cell number and morphology of LNCaP cells in presence of FCS and DHT,"LNCaP cells [4]; about 10 μM to about 20 μM tetrandrine, FIG. 2B",decrease in cell number and atrophied appearance
same,growth and proliferation of LNCaP cells stimulated by DHT,"LNCaP cells [4]; about 10 μM to about 60 μM tetrandrine, FIG. 1A",inhibition of the growth and proliferation
same,cell number and morphology of LNCaP cells growing under FCS,"LNCaP cells [5]; 10 μM tetrandrine, FIG. 2A",decrease in cell number and the notable change in cell morphology
same,cell number and morphology of LNCaP cells growing under FCS,"LNCaP cells [5]; 20 μM tetrandrine, FIG. 2A",the decrease in cell number and the change in cell morphology is even more apparent
same,growth and proliferation of LNCaP cells stimulated by FCS,"LNCaP cells [5]; about 10 μM to about 60 μM tetrandrine, FIG. 1B",inhibition of the growth and proliferation
same,cell number and morphology of LNCaP cells growing under FCS,LNCaP cells [5]; concentration not given,sharp decrease in cell number and a significant change in cell morphology
same,toxicity,[6],minimal toxicity
same,killing of hormone-independent PC3 cells,[7],dose-dependent killing
same,apoptosis and necrosis by flow cytometry,[8],increasing apoptosis and necrosis in a dose- and time-dependent manner
same,DHT-stimulated PSA expression,[9],inhibits DHT-stimulated prostate specific antigen (PSA) expression in a dose-dependent manner
same,Caspase-8 activation,Caspase-8,concentration-dependent increase
same,morphology of nuclei and cytoskeleton,prostate cancer cells [10],nuclei of prostate cancer cells appear to shrink and round while the cytoskeleton is disrupted
same,Caspase-9 activation,Caspase-9,concentration-dependent increase
same,PARP cleavage,PARP,concentration-dependent increase

# — patent US20050245559A1, “Treatment and prevention of prostate cancer” (priority 2004, published 2005)
